Test results as given in ChEMBL document CHEMBL1201862, “PubChem BioAssay data set” (2004).
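Cells were grown in 96-well plates and exposed to each compound for 48 hours at five concentrations; endpoints were interpolated linearly between bracketing concentrations, or set to the highest concentration if not reached. GI50: concentration for 50% inhibition of growth.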 Calls of active or inactive are those of the source. No stated cut-off is given here; in the data, active = GI50 up to about 1.1 µM and inactive = higher.

How the values were obtained:
Experiment in all cases: growth of human tumour cells (NCI), 48 h
786-0 = tested on: 786-0
HCT-116 = tested on: HCT-116
HCT-15 = tested on: HCT-15
HL-60 = tested on: HL-60
HT-29 = tested on: HT-29
IGROV-1 = tested on: IGROV-1
NCI-H226 = tested on: NCI-H226
NCI-H23 = tested on: NCI-H23
NCI-H522 = tested on: NCI-H522
OVCAR-3 = tested on: OVCAR-3
SF-295 = tested on: SF-295
SF-539 = tested on: SF-539
SK-MEL-28 = tested on: SK-MEL-28
SK-MEL-2 = tested on: SK-MEL-2
SNB-75 = tested on: SNB-75
SW-620 = tested on: SW-620
TK-10 = tested on: TK-10
UACC-257 = tested on: UACC-257

Compound	GI50 (786-0)	GI50 (HCT-116)	GI50 (HCT-15) [µM]	GI50 (HL-60)	GI50 (HT-29)	GI50 (IGROV-1)	GI50 (NCI-H226)	GI50 (NCI-H23)	GI50 (NCI-H522)	GI50 (OVCAR-3)	GI50 (SF-295)	GI50 (SF-539)	GI50 (SK-MEL-28)	GI50 (SK-MEL-2)	GI50 (SNB-75)	GI50 (SW-620)	GI50 (TK-10)	GI50 (UACC-257)
CCn1cc(C(=O)O)c(=O)c2cc(F)c(N3CCNCC3)nc21 [ENOXACIN]	> 100 µM (inactive)	65.6 µM (inactive)	> 100	> 100 µM (inactive)	> 100 µM (inactive)	> 100 µM (inactive)	> 100 µM (inactive)	31.1 µM (inactive)	24.4 µM (inactive)	> 100 µM (inactive)	> 100 µM (inactive)	> 100 µM (inactive)	> 100 µM (inactive)	> 100 µM (inactive)	> 100 µM (inactive)	> 100 µM (inactive)	> 100 µM (inactive)	> 100 µM (inactive)
CC(C)C(Sc1nc(-c2ccccc2)c(-c2ccccc2)[nH]1)C(=O)NNC(=S)Nc1ccccc1 (centres undefined)	18.2 µM (inactive)	22.9 µM (inactive)	17.9	20.4 µM (inactive)	17.7 µM (inactive)	18.4 µM (inactive)	16.7 µM (inactive)	14.8 µM (inactive)	8.67 µM (inactive)	13.1 µM (inactive)	16 µM (inactive)	21.4 µM (inactive)	22.7 µM (inactive)	19.2 µM (inactive)	19.5 µM (inactive)	15.3 µM (inactive)	29.3 µM (inactive)	16.9 µM (inactive)
O=C1c2ccccc2S[C@@H](O)[C@@H]2CCCN12	> 100 µM (inactive)	> 100 µM (inactive)	> 100	> 100 µM (inactive)	–	21.9 µM (inactive)	–	> 100 µM (inactive)	> 100 µM (inactive)	> 100 µM (inactive)	> 100 µM (inactive)	> 100 µM (inactive)	> 100 µM (inactive)	> 100 µM (inactive)	–	> 100 µM (inactive)	> 100 µM (inactive)	> 100 µM (inactive)
Nc1ccccc1SC(/C=C/NNC1=NN=C(c2ccccc2)C(c2ccccc2)N1)c1ccccc1 (centres undefined)	12.2 µM (inactive)	–	11.5	3.32 µM (inactive)	17.1 µM (inactive)	15.4 µM (inactive)	13.7 µM (inactive)	5.85 µM (inactive)	3.85 µM (inactive)	13 µM (inactive)	12.1 µM (inactive)	13.2 µM (inactive)	13.7 µM (inactive)	17.7 µM (inactive)	4.72 µM (inactive)	11.7 µM (inactive)	19 µM (inactive)	13.5 µM (inactive)
Cc1cc(C)cc(-n2c3nc(=O)n(C)c(=O)c-3nc3ccccc32)c1	81.7 µM (inactive)	23.9 µM (inactive)	21	–	10.3 µM (inactive)	36.1 µM (inactive)	34.7 µM (inactive)	15.7 µM (inactive)	17.5 µM (inactive)	3.34 µM (inactive)	36 µM (inactive)	21.4 µM (inactive)	–	22.9 µM (inactive)	34.9 µM (inactive)	17 µM (inactive)	42.3 µM (inactive)	15.3 µM (inactive)
CCc1ccc(Cc2ccc(CC)c(NC(=O)C(=O)C3NC(=S)NC3=O)c2CC)c(CC)c1NC(=O)C(=O)C1NC(=S)NC1=O (centres undefined)	> 100 µM (inactive)	> 100 µM (inactive)	> 100	> 100 µM (inactive)	–	> 100 µM (inactive)	–	> 100 µM (inactive)	> 100 µM (inactive)	> 100 µM (inactive)	–	> 100 µM (inactive)	> 100 µM (inactive)	> 100 µM (inactive)	35.2 µM (inactive)	> 100 µM (inactive)	> 100 µM (inactive)	> 100 µM (inactive)
C/C(=N\NC(=S)N(C)C)c1ncc[nH]1	2.18 µM (inactive)	3.56 µM (inactive)	3.77	2.63 µM (inactive)	5.73 µM (inactive)	2.78 µM (inactive)	–	2.1 µM (inactive)	2.62 µM (inactive)	3.36 µM (inactive)	4.28 µM (inactive)	2.77 µM (inactive)	7.48 µM (inactive)	3.69 µM (inactive)	7.57 µM (inactive)	4.59 µM (inactive)	13.3 µM (inactive)	2.92 µM (inactive)
O=C1N(c2ccccc2)C2(O)C(=O)c3ccccc3C2(O)N1c1ccccc1 (centres undefined)	> 100 µM (inactive)	> 100 µM (inactive)	> 100	–	> 100 µM (inactive)	> 100 µM (inactive)	> 100 µM (inactive)	> 100 µM (inactive)	> 100 µM (inactive)	> 100 µM (inactive)	> 100 µM (inactive)	> 100 µM (inactive)	> 100 µM (inactive)	> 100 µM (inactive)	> 100 µM (inactive)	> 100 µM (inactive)	> 100 µM (inactive)	> 100 µM (inactive)
CC(=O)CC(=O)Nc1ccccc1C(F)(F)F	> 100 µM (inactive)	> 100 µM (inactive)	> 100	> 100 µM (inactive)	–	> 100 µM (inactive)	> 100 µM (inactive)	> 100 µM (inactive)	> 100 µM (inactive)	–	–	> 100 µM (inactive)	> 100 µM (inactive)	> 100 µM (inactive)	> 100 µM (inactive)	> 100 µM (inactive)	> 100 µM (inactive)	–
O=[N+]([O-])c1cc(C2SCc3nc4ccccc4n32)ccc1Cl (centres undefined)	34.3 µM (inactive)	17.8 µM (inactive)	–	16 µM (inactive)	30.8 µM (inactive)	45.9 µM (inactive)	25.1 µM (inactive)	16.1 µM (inactive)	20 µM (inactive)	25.3 µM (inactive)	38 µM (inactive)	27.8 µM (inactive)	25.9 µM (inactive)	21.2 µM (inactive)	28.7 µM (inactive)	41 µM (inactive)	47.5 µM (inactive)	22.3 µM (inactive)
CCC1CC2C(=O)N(c3ccccc3)C(=O)C2c2[nH]c3ccccc3c21 (centres undefined)	18.9 µM (inactive)	–	60.8	21.6 µM (inactive)	22.2 µM (inactive)	6.43 µM (inactive)	11.4 µM (inactive)	71.8 µM (inactive)	–	15.7 µM (inactive)	7.19 µM (inactive)	–	38.6 µM (inactive)	–	3.08 µM (inactive)	46.1 µM (inactive)	31.9 µM (inactive)	–
COc1ccc(N2C(=O)c3c(c4[nH]c5ccc(OC)cc5c4c4ccc(C(C)(C)C)cc34)C2=O)cc1	> 100 µM (inactive)	> 100 µM (inactive)	> 100	53.2 µM (inactive)	> 100 µM (inactive)	> 100 µM (inactive)	> 100 µM (inactive)	> 100 µM (inactive)	> 100 µM (inactive)	> 100 µM (inactive)	> 100 µM (inactive)	> 100 µM (inactive)	> 100 µM (inactive)	> 100 µM (inactive)	> 100 µM (inactive)	–	> 100 µM (inactive)	> 100 µM (inactive)
